From patent US20230233687A1, “HYALURONIC ACID-BASED FORMULATIONS FOR TREATMENT AND PREVENTION OF OCULAR HYPERTENSION AND GLAUCOMA” (I.COM MEDICAL GMBH, priority 2020, published 2023)

What was measured:
[1] = PubChem CID 5311221; cited from earlier work
[2] = Pre-test: latanoprost dissolved in the HA vehicle (HPLC); format: physicochemical; details: vehicle 0.15% w/v hylan A in phosphate buffered saline pH 7.4, 25 or 50 μg/ml added, stirred 18 hours at 40° C.
Protocol: Sterile bulk solution for the production of COMFORT SHIELD® MDS eye drops (i.com medical GmbH, Munich, Germany) was used as vehicle for the preparation of prototype latanoprost bulk solution (PLBS). The vehicle contained 0.15% w/v hylan A (HA with 2.9 m^3/kg intrinsic viscosity) dissolved in phosphate buffered saline solution (8.035 g/l NaCl; 1.2 mmol/l Na2HPO4/NaH2PO4; pH 7.4). Latanoprost was obtained from Yonsung Fine Chemicals Co. Ltd., Gyeonggi-do, Republic of Korea. PLBS was prepared by medi-pharm Laboratorium GmbH, Falkensee, Germany by dissolving 20±1 μg/ml latanoprost in the vehicle.
In a pre-test 25 μg/ml and 50 μg/ml latanoprost were added to the vehicle and the solution stirred for 18 hours at 40° C. The latanoprost content was determined by HPLC using a Hypersil B D S C18 […], 150.0×4.0 mm column (VDS optilab) and a UV detector (200 nm).

latanoprost dissolved in the vehicle [2]: 20.8 µg/mL
SMILES: CC(C)OC(=O)CCC/C=C\C[C@@H]1[C@@H](CC[C@@H](O)CCc2ccccc2)[C@H](O)C[C@@H]1O [latanoprost]
solubility of latanoprost in water [1]: 12.9 µg/mL
